The values that follow come from ChEMBL document CHEMBL6153120, “Identification of Structurally Novel KRASG12C Inhibitors through Covalent DNA-Encoded Library Screening” (J Med Chem, 2025).

Structures are written as SMILES.

The nature of series [1]: Inhibition of ERK1/2 phosphorylation in human MIA PaCa-2 cells incubated for 2 hrs by MSD assay. The series is classed as cell-based. The note with it: MIA PaCa-2, 2 h.
A further series relates to MIA PaCa-2. In words: Antiproliferative activity against human MIA PaCa-2 cells assessed as reduction in cell viability incubated for 72 hrs by Cell Titer-Glo reagent based luminescent cell viability assay. The series is classed as functional. Particulars: MIA PaCa-2, 72 h. (In ATP-based viability assays light output follows the ATP content of the culture.)
A further series deals with GTPase KRas (Homo sapiens, UniProt P01116, C118A/G12C). In words: Inhibition of recombinant His-tagged GDP-bound human KRAS G12C/C118A mutant (1 to 169 residues) (unknown origin) extracted by Escherichia coli assessed as SOS1-catalyzed GDP-GTP exchange preincubated for 2 hrs followed by SOS1 and GTP addition for 30 mins and measured after 45 mins of GST-tagged c-RAF addition by luminescence based Alphascreen assay.

Series [2] is described as follows: Oral bioavailability in mouse. Type of series: ADME, organism-based. The note with it: in vivo.
Series [3] in a line: Unbound AUC in mouse at 5 mg/kg, po. The series is classed as ADME, organism-based. The note with it: in vivo.
Series [4] is described as follows: Unbound AUC in mouse at 100 mg/kg, po. The series is classed as ADME, organism-based. Particulars: in vivo.
A short description of series [5]: Clearance in mouse. Type of series: ADME, organism-based. Particulars: in vivo.
The nature of the next series: animal or person. The note with it: Mus musculus, MIA PaCa-2, po, 2 h, read-out: INH.

For orientation: IC50 means the concentration needed to halve the response being measured. Take `C=CC(=O)N1CC2(CCN(c3nc4c(c(N[C@H](CC(=O)NC)CC(C)C)n3)CCCC4)C2)C1`: the figures for the IC50 (in series [1]; in the series on MIA PaCa-2) were 1590 nM and 890 nM, respectively.
With `C=CC(=O)N1CC2(CCN(c3nc4c(c(-c5cccc6sc(N)nc56)n3)CCCC4)C2)C1`, the IC50 on GTPase KRas is 890 nM; in series [1] it was 8130 nM; in the series on MIA PaCa-2, more than 5000 nM.
For orientation: bioavailability means the share of a dose that reaches the circulation, judged against a reference dose that is usually intravenous. Turning to `C=CC(=O)N1CC2(CCN(c3nc4c(c(-c5cc(O)cc6ccccc56)c3C#N)COC(C)(C)C4)C2)C1`, the figures for the concentration for half-maximal inhibition (IC50) (on GTPase KRas; in series [1]; with MIA PaCa-2) were 22 nM, 101 nM and 143 nM, respectively. Moreover, the bioavailability in series [2] was determined as 34%. Also, the fAUC in series [3] worked out at 0.013 µM·h.
On to `C=CC(=O)N1CC2(CCN(c3nc4c(c(-c5cc(O)cc6ccccc56)c3F)COC(C)(C)C4)C2)C1`, for which the results for the IC50 (on GTPase KRas; in series [1]; in the series with MIA PaCa-2) were 62 nM, 217 nM and 119 nM, respectively. In series [2], this compound displayed a bioavailability of 27%. In addition, the fAUC in series [3] stood at 0.027 µM·h; in series [4], 0.36 µM·h.
`C=CC(=O)N1CC2(CCN(c3nc4c(c(-c5c(C)ccc6[nH]ncc56)c3C#N)C[C@H]3C[C@@H]4C3(C)C)C2)C1`: the figures for the half-maximal inhibitory concentration (IC50) (at GTPase KRas; in series [1]; in the series with MIA PaCa-2) were 19 nM, 10 nM and 11 nM, respectively.
`C=CC(=O)N1CC2(CCN(c3nc(N[C@H](CC(=O)NC)CC(C)C)nc(-c4cccc(OC)c4OC)n3)C(C)C2)C1` (stereo not given in full): the concentration for half-maximal inhibition (IC50) on GTPase KRas is 3200 nM; in series [1] it was 6010 nM.
On to `C=CC(=O)N1CC2(CCN(c3nc4c(c(-c5cc(O)cc6ccccc56)c3C)COC(C)(C)C4)C2)C1`, for which the results for the IC50 (in series [1]; in the series on MIA PaCa-2) were 100 nM and 32 nM, respectively. The same compound returned a bioavailability in series [2] of 44%. For the same compound, the figures for the fAUC in series [3] and in series [4] were 0.018 µM·h and 0.137 µM·h, respectively.
Turning to `C=CC(=O)N1CC2(CCN(c3nc4c(c(-c5cc(O)cc6ccccc56)c3C#N)C[C@H]3C[C@@H]4C3(C)C)C2)C1`, the concentration for half-maximal inhibition (IC50) on GTPase KRas was 19 nM; in series [1], 40 nM; in the series on MIA PaCa-2 it was 21 nM. The compound further registered a bioavailability in series [2] of 4%. In series [3], this compound displayed a fAUC of 0.001 µM·h.
For orientation: clearance means a measure of how efficiently the substance is removed, as volume per time. A lower clearance goes with a low capacity for elimination. Take `C=CC(=O)N1CC2(CCN(c3nc4c(c(-c5c(C)ccc6[nH]ncc56)c3C#N)COC(C)(C)C4)C2)C1`: the IC50 was 64 nM on GTPase KRas, 158 nM in series [1] and 96 nM with MIA PaCa-2. Also, in series [5], the clearance is 90 mL/min/kg. In addition, the bioavailability in series [2] came out at 3%. The compound further gave a fAUC in series [3] of 0.003 µM·h.
In the case of `C=CC(=O)N1CC2(CCN(c3nc4c(c(-c5cc(O)cc6ccccc56)n3)CCCC4)C2)C1`, the IC50 on GTPase KRas was 690 nM; in series [1], 8480 nM; in the series with MIA PaCa-2, more than 5000 nM.
For `C=CC(=O)N1CC2(CCN(c3nc(N[C@H](CC(=O)NC)CC(C)C)nc(-c4cccc(OC)c4F)n3)C2)C1`, the IC50 came to 610 nM at GTPase KRas, 1230 nM in series [1] and 720 nM with MIA PaCa-2.
In series [2], `C=CC(=O)N1CC2(CCN(c3nc4c(c(-c5cc(O)cc6ccccc56)c3F)C[C@H]3C[C@@H]4C3(C)C)C2)C1` came in with a bioavailability of 14%. In addition, the results for the fAUC in series [3] and in series [4] were 0.021 µM·h and 1.01 µM·h, respectively. In “animal or person”, the inhibition in vivo at 100 mg/kg stood at 55%.
Take `C=CC(=O)N1CC2(CCN(c3nc4c(c(-c5c(C)ccc6[nH]ncc56)n3)CCC(C)(C)C4)C2)C1`: the IC50 worked out at 840 nM at GTPase KRas, 6390 nM in series [1] and 3350 nM in the series with MIA PaCa-2.
With `C=CC(=O)N1CC2(CCN(c3nc(N[C@H](CC(=O)NC)CC(C)C)nc(-c4cc(F)ccc4OC)n3)CC2(F)F)C1`, the half-maximal inhibitory concentration (IC50) on GTPase KRas is 300 nM; in series [1], 950 nM; with MIA PaCa-2 it was 720 nM.
With `C=CC(=O)N1CC2(CCN(c3nc(N[C@H](CC(=O)NC)CC(C)C)c4ccccc4n3)C2)C1`, the half-maximal inhibitory concentration (IC50) in series [1] amounted to 6170 nM; in the series with MIA PaCa-2 it was 1290 nM.
For the compound `C=CC(=O)N1CC2(CCN(c3nc4c(c(-c5cc(O)cc6ccccc56)c3Cl)COC(C)(C)C4)C2)C1`, the bioavailability in series [2] came out at 50%. The fAUC in series [3] stood at 0.042 µM·h; in series [4] it was 0.15 µM·h.
Turning to `C=CC(=O)N1CC2(CCN(c3nc(N[C@H](CC(=O)NC)CC(C)C)nc(-c4cccc(OC)c4Cl)n3)CC2)C1`, the results for the IC50 (at GTPase KRas; in series [1]) were 1750 nM and 8840 nM, respectively.
Consider `C=CC(=O)N1CC2(CCN(c3nc4c(c(-c5c(C)ccc6[nH]ncc56)n3)CCCC4)C2)C1`, for which the figures for the concentration for half-maximal inhibition (IC50) (at GTPase KRas; in series [1]; in the series with MIA PaCa-2) were 3830 nM, 8240 nM and more than 5000 nM, respectively.
As to `C=CC(=O)N1CC2(CCN(c3nc4c(c(-c5c(C)ccc6[nH]ncc56)c3C#N)CCC(C)(C)C4)C2)C1` (atropisomer P), the concentration for half-maximal inhibition (IC50) in series [1] came to 67 nM; in the series on MIA PaCa-2 it was 42 nM.
